Measurements as given in patent publication US10849872B2, “Methods and compositions for treating obesity, preventing weight gain, promoting weight loss, promoting slimming, or treating or preventing the development of diabetes” (NAN Global, LLC, priority 2014, dated 2020).

Legend:
[1] = tested on: human cell lines (brain, liver, lung, intestine, kidney, and muscle); test: Preclinical toxicity study in human cell lines; format: cell-based; conditions: all examined human cell lines: brain
Description: (§1) A preclinical toxicity study of tyrphostin 9 was conducted in human cell lines (brain, liver, lung, intestine, kidney, and muscle), followed by feeding experiments of C57BL/6 mice. In the in vivo mice experiments, the mice were orally administered tyrphostin 9 during 15 days, at a dose of 0.175 mg/kg/day.

C57BL/6 mice = test: Feeding experiments of C57BL/6 mice, oral tyrphostin 9; format: in vivo
Description: as §1

[2] = tested on: differentiation of keratocytes into adipocytes; test: Inhibition of differentiation into adipocytes; format: cell-based
human neutrophils = conditions: well known properties; cited from earlier work
[3] = well known properties; cited from earlier work
obese subjects = test: Synergistic effects of tyrphostin 9 and L-carnitine tartrate in obese subjects; format: in vivo, human; conditions: Group A: two capsules per day of 20 mg tyrphostin 9, oral
Description: Obese subjects with similar BMI and whose weight had remained essentially constant during the past 30 days were recruited, instructed not to modify their eating habits, food intake, or lifestyle, and randomly and blindly assigned to either treatment Group A, Group B, or Group C.
Subjects in Group A were administered (orally) two capsules per day, each containing 20 mg Tyrphostin 9 plus inert excipient; subjects in Group B were administered (orally) four capsules per day, each containing 5 mg tyrphostin 9 and about 700 mg L-carnitine tartrate; subjects in Group C were administered—in the morning—two capsules, each containing 20 mg Tyrphostin 9 plus inert excipient, and—at night time—four capsules, each containing about 700 mg of L-carnitine tartrate.
After a two week washout period, a new experiment was initiated. Subjects in Group A were orally administered two capsules per day, each containing 20 mg Tyrphostin 9 plus inert excipient, subjects in Group B were given eight capsules per day, each containing 5 mg Tyrphostin 9 plus about 700 mg L-carnitine tartrate, and subjects in Group C were administered—in the morning—two capsules, each containing 20 mg tyrphostin 9 plus inert excipient and, at night, eight capsules each containing about 700 mg L-carnitine tartrate.

[4] = tested on: overweight, obese, and/or diabetic subjects; test: Preliminary trial in overweight, obese, and/or diabetic subjects; format: in vivo, human
Description: A preliminary trial involving 75 overweight, obese, and/or diabetic subjects of both sexes was carried out over a twenty-month period. Exclusion criteria were: (1) recent significant weight gain, (2) a compromised thermoregulatory system, (3) pregnancy, (4) renal or hepatic failure, (5) use of illegal drugs or drugs that impair the body's heat dissipation mechanisms, (6) serious dysrhythmias, (7) unstable angina pectoris, (8) congestive heart failure, (9) severe cerebrovascular disease, (10) use of a pacemaker, (11) severe pulmonary impairment, (12) anemia, (13) Parkinson's disease, (14) body weight of less than 35 kilograms, (15) extensive psoriasis, (16) repeated episodes of hypoglycemia, (17) cystic fibrosis, (18) spinal cord injury, (19) a hereditary muscle disease, (20) chronic or recurrent venous thrombosis, (21) untreated hyperthyroidism, (22) exercise- or heat-induced angioedema, (23) seizure disorders, (24) schizophrenia, and (25) hypocalcemia.
Medications that reduce sweating, decrease vasodilatation, decrease cardiac output, or induce hypothalamic depression were not taken prior to, during, and immediately after treatment.
Obese participants, aged 16-72, were administered orally one or more hard gelatin capsules per day, each containing 20 mg of active ingredient (i.e., tyrphostin 9) and microcrystalline cellulose. They were instructed not to modify their food intake or to start a course of exercise. […] Afterwards, different dosing schedules were imposed, with refractory individuals being administered two or three capsules per day (i.e., 40 or 60 mg tyrphostin 9 per day), whereas only one capsule per day was administered to all others, who consequently received 20 mg tyrphostin 9 per day throughout the trial.
Participants were also instructed to prevent dehydration by drinking plenty of water and to replenish electrolytes by taking both potassium and magnesium supplements or V-8 Juice or Gatorade. Those receiving two capsules per day were asked to take them at the same time during weeks two and three and then to switch to one in the morning and one at night during weeks four and five. Participants receiving 40 mg tyrphostin 9 per day reported that sweating/body temperature peaked either during night time or day time, depending on whether the two capsules were taken in the morning or at night. […] Obese participants lost on average 4 kg per month, with cumulative weight losses of up to 48 kg.
Diabetic subjects (mostly obese and all presenting Type 2 diabetes mellitus) were similarly treated.

[5] = Shelf life of synthesised tyrphostin 9; format: physicochemical; conditions: at 25-35° C.
Description: This procedure yields about 800 g (about 95% yield) of a light-yellow microcrystalline solid that melts at 141-142° C. (uncorrected), presents UV absorption maxima at 247 nm and 365 nm and has an Rf value of 0.65 (using benzene as eluant and Merck's TLC silica gel 60 F254 plastic-backed sheets), with only one spot being observed. The mixed melting point of this compound and authentic tyrphostin 9 (acquired from Cayman Chemical) was also 141-142° C. (uncorrected), and its spectroscopic and chromatographic properties were identical to those of the authentic product. This compound is stable, with a shelf life of over 1 year at 25-35° C.; if necessary it may be recrystallized from ethanol.

## CC(C)(C)c1cc(C=C(C#N)C#N)cc(C(C)(C)C)c1O [tyrphostin 9]
[1]
  toxicity in human cell lines: low
C57BL/6 mice; 0.175 mg/kg/day during 15 days, histochemical and behavioral criteria
  toxicity or inflammation in treated mice: no evidence of toxicity or inflammation
C57BL/6 mice; concomitant with visceral lipid transport
  adipocyte dimensions: reduction
C57BL/6 mice; lean mice
  effect on chow intake: no such effect
C57BL/6 mice; mouse, in vivo
  apoptosis induction, obese versus lean mice: more evident in obese mice than in lean mice
  glycogen storage in hepatocytes: promotes
  visceral lipid transport from adipocytes: promotes
C57BL/6 mice; obese mice grown on a high-fat diet, oral 0.175 mg/kg/day, 15 days
  chow intake curtailed: about 50%
C57BL/6 mice; to a greater extent than taurosporine
  adipocyte apoptosis mediated by caspase-3: promotes
[2]
  differentiation of keratocytes into adipocytes: inhibits
Human neutrophils
  TNF-induced respiratory burst of human neutrophils: inhibits
[3]
  toxicity (in vitro and in vivo): very low toxicity
Obese subjects
  weight loss after 15 days: about 2 kg
[4]; 40 mg per day, weeks two and three simultaneous, weeks four and five split
  sweating/heat sensation, two capsules simultaneously versus one in the morning and one at night: more intense during weeks two and three
[4]; all participants, end of treatment
  slimming (waist circumference and other body measurements): significant reductions in waist circumference
[4]; diabetic subjects (Type 2 diabetes mellitus, mostly obese)
  blood glucose level: significant decrease
[4]; end of first week, one 20 mg capsule per day, oral
  sweating / body temperature reported by participants: most of them reported sweating copiously and/or noticing a distinct increase in body temperature
[4]; end of trial, 20, 40 or 60 mg per day, all participants
  sweating / heat sensation reported by participants: sweating copiously and/or experienced an increased heat sensation
[4]; human, in vivo
  adverse effects: no adverse effects were reported
  muscle mass loss: negligible
  rebound effect: no “rebound effect” was observed
  tolerability of treatment: very well tolerated
[4]; obese and diabetic subjects
  blood lipid values: lower blood lipid values
[4]; obese participants
  cumulative weight losses: up to 48 kg
[4]; obese participants, 20-60 mg per day oral
  average weight loss: 4 kg per month
[5]
  shelf life: over 1 year
